Test results: ChEMBL document CHEMBL1126682, “Quinolone antimicrobial agents substituted with morpholines at the 7-position. Syntheses and structure-activity relationships” (J Med Chem, 1993)
Converted amounts (≈) assume the structure as drawn.

Experiments:
[1] = molecular target: T1, GABA-A receptor; anion channel (Homo sapiens) (UniProt P14867+P47870+P18507+P28472+P48169+Q99928+Q9UN88+P34903+O00591+O14764+Q8N1C3+P18505+P78334+P47869+P31644+Q16445); assay: Percentage of GABA-induced chloride currents with compound alone at 10 e-4 M; assay type: functional; settings: Bull Frog
Escherichia coli [2] = assay: Minimum inhibition concentration against Escherichia coli NIHJ JC-2 strain; assay type: functional
Staphylococcus aureus [3] = assay: Effective dose against Staphylococcus aureus smith strain in mouse; assay type: functional
[4] = molecular target: GABA-A receptor; anion channel; assay: Inhibition of [3H]muscimol binding to GABA A receptor with compound alone at 10 e-4 M; assay type: protein-complex assay
[5] = molecular target: T1, GABA-A receptor; anion channel (Homo sapiens); assay: Percentage of GABA-induced chloride currents with 10 e-5 M 4-biphenylacetic acid; assay type: functional; settings: Bull Frog
Streptococcus pneumoniae = assay: Minimum inhibition concentration against Streptococcus pneumoniae Type I strain; assay type: functional
Pseudomonas aeruginosa = assay: Minimum inhibition concentration against Pseudomonas aeruginosa U-31 strain; assay type: functional
Staphylococcus aureus [6] = assay: Minimum inhibitory concentration against Staphylococcus aureus Smith; assay type: functional
Staphylococcus aureus [7] = assay: Minimum inhibition concentration against Staphylococcus aureus FDA209P strain; assay type: functional
[8] = molecular target: GABA-A receptor; anion channel; assay: Inhibition of [3H]muscimol binding to GABA A receptor 4-biphenylacetic acid at 10 e-4 M; assay type: protein-complex assay
Mus musculus [9] = assay: Percentage of mice with convulsion with compound alone at 400 mg/kg; assay type: functional
Enterococcus faecalis = assay: Minimum inhibition concentration against Enterococcus faecalis LS-101 strain; assay type: functional
Mus musculus [10] = assay: Percentage of mice with convulsion (400 mg/kg fenbufen); assay type: functional
Escherichia coli [11] = assay: Effective dose against Escherichia coli KC14 strain in mouse; assay type: functional
Escherichia coli [12] = assay: Minimum inhibitory concentration against Escherichia coli KC14 strain; assay type: functional
[13] = molecular target: T1, GABA-A receptor; anion channel (Homo sapiens); assay: Percentage of GABA-induced chloride currents with 10e-4 M 4-biphenylacetic acid; assay type: functional; settings: Bull Frog
[14] = molecular target: T1, GABA-A receptor; anion channel (Homo sapiens); assay: Percentage of GABA-induced chloride currents, compound with 10E-4 M 4-biphenylacetic acid; assay type: functional; settings: Bull Frog
[15] = The compound was evaluated for the solubility in water at 25 degrees Centigrade; assay type: ADME
Staphylococcus aureus [16] = assay: Minimum inhibition concentration against Staphylococcus aureus MRSA strain; assay type: functional
[17] = molecular target: GABA-A receptor; anion channel; assay: Inhibition of [3H]muscimol binding to GABA A receptor with 10 e-4 M 4-biphenylacetic acid; assay type: protein-complex assay

| Compound | Currents [1] | MIC (Escherichia coli [2]) | ED50 (Staphylococcus aureus [3]) | IC50 [4] | Currents [5] | MIC (Streptococcus pneumoniae) | MIC (Pseudomonas aeruginosa) | MIC (Staphylococcus aureus [6]) | MIC (Staphylococcus aureus [7]) | IC50 ([8]; read-out: IC50) | Convulsion (Mus musculus [9]) | MIC (Enterococcus faecalis) | Convulsion (Mus musculus [10]) | ED50 (Escherichia coli [11]) | MIC (Escherichia coli [12]) | Currents [13] | solubility [15] | MIC (Staphylococcus aureus [16]) | also measured |
| --- | --- | --- | --- | --- | --- | --- | --- | --- | --- | --- | --- | --- | --- | --- | --- | --- | --- | --- | --- |
| CC1COc2c(N3CCN(C)CC3)c(F)cc3c(=O)c(C(=O)O)cn1c23 (stereo unspecified) [OFLOXACIN] | 94% | 0.1 µg/mL (≈ 0.277 µM) | 0.27 mg mouse-1 | > 100 µM | 87% | 0.78 µg/mL (≈ 2.16 µM) | 0.78 µg/mL (≈ 2.16 µM) | 0.2 µg/mL (≈ 0.553 µM) | 0.2 µg/mL (≈ 0.553 µM) | 11 µM | 0% | 0.78 µg/mL (≈ 2.16 µM) | 0% | 0.009 mg mouse-1 | 0.05 µg/mL (≈ 0.138 µM) | 39% | – | – | – |
| O=C(O)c1cn(C2CC2)c2c(F)c(N3CCOCC3)c(F)cc2c1=O | 91% | 0.1 µg/mL (≈ 0.285 µM) | 1.304 mg mouse-1 | > 100 µM | 91% | 0.39 µg/mL (≈ 1.11 µM) | 0.78 µg/mL (≈ 2.23 µM) | 0.05 µg/mL (≈ 0.143 µM) | 0.025 µg/mL (≈ 0.0714 µM) | > 100 µM | 0% | 0.78 µg/mL (≈ 2.23 µM) | 0% | 0.056 mg mouse-1 | 0.1 µg/mL (≈ 0.285 µM) | – | 9 µg/mL (≈ 25.7 µM) | 0.05 µg/mL (≈ 0.143 µM) | Currents [14]: 71% |
| NCC1CN(c2c(F)cc3c(=O)c(C(=O)O)cn(CCF)c3c2F)CCO1 (stereo unspecified) | – | 6.25 µg/mL (≈ 16.2 µM) | – | – | – | 3.13 µg/mL (≈ 8.12 µM) | 25 µg/mL (≈ 64.9 µM) | – | 0.78 µg/mL (≈ 2.02 µM) | – | – | 0.78 µg/mL (≈ 2.02 µM) | – | – | – | – | – | – | – |
| CN(Cc1ccccc1)CC1CN(c2c(F)cc3c(=O)c(C(=O)O)cn(C4CC4)c3c2F)CCO1 (stereo unspecified) | – | 1.56 µg/mL (≈ 3.23 µM) | – | – | – | 0.78 µg/mL (≈ 1.61 µM) | 25 µg/mL (≈ 51.7 µM) | – | 0.39 µg/mL (≈ 0.807 µM) | – | – | 1.56 µg/mL (≈ 3.23 µM) | – | – | – | – | – | – | – |
| NCC1CN(c2c(F)cc3c(=O)c(C(=O)O)cn(-c4cc(F)cc(F)c4)c3c2F)CCO1 (stereo unspecified) | – | 0.39 µg/mL (≈ 0.864 µM) | – | – | – | 0.2 µg/mL (≈ 0.443 µM) | 6.25 µg/mL (≈ 13.8 µM) | – | 0.2 µg/mL (≈ 0.443 µM) | – | – | 0.39 µg/mL (≈ 0.864 µM) | – | – | – | – | – | – | – |
| CCn1cc(C(=O)O)c(=O)c2cc(F)c(N3CCOC(CN)C3)c(F)c21 (stereo unspecified) | 94% | 1.56 µg/mL (≈ 4.25 µM) | 0.521 mg mouse-1 | > 100 µM | 89% | 0.39 µg/mL (≈ 1.06 µM) | 3.13 µg/mL (≈ 8.52 µM) | 0.1 µg/mL (≈ 0.272 µM) | 0.2 µg/mL (≈ 0.544 µM) | > 100 µM | 0% | 0.39 µg/mL (≈ 1.06 µM) | 0% | 0.232 mg mouse-1 | 0.39 µg/mL (≈ 1.06 µM) | 79% | 2900 µg/mL (≈ 7890 µM) | – | – |
| CCn1cc(C(=O)O)c(=O)c2cc(F)c(N3CCOCC3)cc21 | 100% | 0.78 µg/mL (≈ 2.44 µM) | – | > 100 µM | 100% | 12.5 µg/mL (≈ 39 µM) | 3.13 µg/mL (≈ 9.77 µM) | – | 0.2 µg/mL (≈ 0.624 µM) | – | 0% | 3.13 µg/mL (≈ 9.77 µM) | 0% | – | – | 92% | – | 0.39 µg/mL (≈ 1.22 µM) | IC50 [17]: > 100 µM |
| CCNCC1CN(c2c(F)cc3c(=O)c(C(=O)O)cn(C4CC4)c3c2F)CCO1 (stereo unspecified) | – | 0.1 µg/mL (≈ 0.245 µM) | – | – | – | 0.05 µg/mL (≈ 0.123 µM) | 3.13 µg/mL (≈ 7.68 µM) | – | 0.1 µg/mL (≈ 0.245 µM) | – | – | 0.2 µg/mL (≈ 0.491 µM) | – | – | – | – | – | – | – |
| O=C(O)c1cn(C2CC2)c2cc(N3CCOCC3)c(F)cc2c1=O | 100% | 0.2 µg/mL (≈ 0.602 µM) | – | > 100 µM | 99% | 3.13 µg/mL (≈ 9.42 µM) | 1.56 µg/mL (≈ 4.69 µM) | – | 0.05 µg/mL (≈ 0.15 µM) | – | 0% | 0.78 µg/mL (≈ 2.35 µM) | 0% | – | – | 91% | – | 0.1 µg/mL (≈ 0.301 µM) | IC50 [17]: > 100 µM |
| O=C(O)c1cn(C2CC2)c2cc(N3CCNCC3)c(F)cc2c1=O [CIPROFLOXACIN] | 64% | – | 0.354 mg mouse-1 | 100 µM | 0% | 0.39 µg/mL (≈ 1.18 µM) | 0.1 µg/mL (≈ 0.302 µM) | 0.1 µg/mL (≈ 0.302 µM) | 0.1 µg/mL (≈ 0.302 µM) | – | 0% | 0.39 µg/mL (≈ 1.18 µM) | 63% | 0.007 mg mouse-1 | < 0.006 µg/mL | – | – | 1.56 µg/mL (≈ 4.71 µM) | IC50 [8]: 0.41 µM |
| CCn1cc(C(=O)O)c(=O)c2cc(F)c(N3CCNCC3)cc21 [NORFLOXACIN] | 38% | 0.1 µg/mL (≈ 0.313 µM) | 1 mg mouse-1 | 13 µM | 0% | 3.13 µg/mL (≈ 9.8 µM) | 0.39 µg/mL (≈ 1.22 µM) | 0.2 µg/mL (≈ 0.626 µM) | 0.39 µg/mL (≈ 1.22 µM) | 0.02 µM | 0% | 0.78 µg/mL (≈ 2.44 µM) | 100% | 0.054 mg mouse-1 | 0.05 µg/mL (≈ 0.157 µM) | – | 290 µg/mL (≈ 908 µM) | 12.5 µg/mL (≈ 39.1 µM) | – |
| CN(C)CC1CN(c2c(F)cc3c(=O)c(C(=O)O)cn(C4CC4)c3c2F)CCO1 (stereo unspecified) | 91% | 0.2 µg/mL (≈ 0.491 µM) | 0.035 mg mouse-1 | > 100 µM | 89% | 0.05 µg/mL (≈ 0.123 µM) | 3.13 µg/mL (≈ 7.68 µM) | 0.012 µg/mL (≈ 0.0295 µM) | 0.025 µg/mL (≈ 0.0614 µM) | > 100 µM | 0% | 0.39 µg/mL (≈ 0.957 µM) | 0% | 0.009 mg mouse-1 | 0.05 µg/mL (≈ 0.123 µM) | 83% | > 1000 µg/mL | – | – |
